# Experimental data taken from patent US20110028719A1, “SCREENING METHODS FOR AMYLOID BETA MODULATORS” (priority 2006, published 2011).
# Target: immobilized Aβ fibrils (Homo sapiens, UniProt P05067)
# Experiment: FAC-MS assay of free Aβ monomer (indicator) binding to immobilized Aβ fibrils in the presence of test compounds
# Settings: FAC-MS % shift of breakthrough time of free Aβ1-42 monomer (1 μM) on immobilized Aβ fibrils; compounds 1-10 μM in 20 mM NH4OAc, 1% DMSO; void marker M3
# Chain of immobilized Aβ fibrils (P05067 672-713 limits assumed): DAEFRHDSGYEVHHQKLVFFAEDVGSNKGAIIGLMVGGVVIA
row,SMILES,% of Shift
1,"CC(=O)OC1C(OC(=O)C(C)(C)C)C(OC(=O)C(C)(C)C)C(OC(C)=O)C(OC(=O)C(C)(C)C)C1OC(=O)C(C)(C)C (centres unmarked) [Compound 37387004, 2,5-bis(acetoxy)-3,4,6-tris[(2,2-dimethylpropanoyl)oxy]cyclohexyl pivalate]",4%
2,"O=P(O)(O)O[C@@H]1C(O)[C@@H](OP(=O)(O)O)[C@@H](O)C(O)[C@H]1O (stereo partly drawn) [Compound I-3139, D-Myo-inositol-2,4-bis-phosphate, reference compound]",12%
3,"O=C(O)[C@]1(O)C[C@@H](O)[C@@H](O)[C@H](O)C1 [Compound 138622, 1R,3R,4R,5R-Quinic acid, reference compound]",3%
4,"O=C(OC1C(O)C(OC(=O)c2ccccc2)C(OC(=O)c2ccccc2)C(OC(=O)c2ccccc2)C1OC(=O)c1ccccc1)c1ccccc1 (centres unmarked) [Compound 37387010, 2,3,5,6-tatrakis(benzoyloxy)-4-hydroxycyclohexyl benzoate]",2%
5,"C[C@H]1O[C@H](OC2[C@@H](O)[C@@H](O)C(O)[C@H](O)[C@H]2O)[C@@H](N)C[C@@H]1N=C(N)C(=O)O.Cl (some centres unmarked) [Compound K413, Kasugamycin hydrochloride, reference compound]",2%
6,"O[C@H]1[C@H](O)[C@@H](O)[C@H](O)[C@@H](O)[C@@H]1O [AZD-103, scyllo-inositol, reference compound]",84%
7,"CC(C)(C)C(=O)OC1C(OC(=O)C(C)(C)C)C(OC(=O)C(C)(C)C)C(OC(=O)C(C)(C)C)C(OC(=O)C(C)(C)C)C1OC(=O)C(C)(C)C (centres unmarked) [Compound 37387008, 2,3,4,5,6-pentakis[(2,2-dimethylpropanoyl)oxy]cyclohexyl pivalate]",4%

# Same assay, conditions: FAC-MS screen; shift of free Aβ monomer breakthrough on immobilized Aβ fibrils in presence of compound; scale not given
row,SMILES,Aβ Shift
1,O=C(O)C1C2CC3C(C2Cl)C31 (centres unmarked),1
2,CC1CC(NC(=O)c2nc[nH]n2)CC(C)(C)C1 (centres unmarked),1
3,CC1CCN(CC(O)COC2CC(C)CC(C)(C)C2)CC1 (centres unmarked),0
4,CC1CCC(C(C)C)C(OC(=O)c2ccncc2)C1 (centres unmarked),1
5,CN(C)CCOC(=O)C12CC3(C)CC(C)(CC(C)(C3)C1)C2,2
6,CC12CC3(C)CC(CC(=O)O)(C1)CC(CC(=O)O)(C2)C3,1
7,CC12CC3(C)CC(C)(C1)CC(NC(=O)NC(C)(C)C)(C2)C3,1
8,CC[N+](CC)(CC)CCCOC1CC(C)CCC1C(C)C (centres unmarked),2
9,CC1C2CC3(C)CC1(C)CC(C1(C)CC(=O)O1)(C2)C3 (centres unmarked),1
10,CC(C)C(=O)O[C@H]1[C@H](OC(=O)C(C)C)[C@@H](OC(=O)C(C)C)[C@H](OC(=O)C(C)C)[C@@H](OC(=O)C(C)C)[C@H]1OC(=O)C(C)C,5
11,Cc1cc(NC(=O)C23CC4CC(C)(CC(C)(C4)C2)C3)no1,1
12,C=CC1CCC(O)C(O)C1 (centres unmarked),1
13,CC12CC3CC(C)(C1)CC(C(=O)Nc1nccs1)(C3)C2,1
14,CC1(C)CC2(C)CC3=C([C@H](CO)C(C)(C)C3)C(CO)(C1)C2 (some centres unmarked),0
15,CC1CC(C)C(C(=O)c2ccccc2)C(O)C1 (centres unmarked),1
16,CC1CC2(C)CC(C)C1(CO)CO2 (centres unmarked),1
17,CC(C)NC(=O)C12CC3(C)CC(C)(CC(C)(C3)C1)C2,1
18,COC(=O)C12CC3CC(C)(CC(C)(C3)C1)C2,1
19,CC1CCCC(n2cnc3cc(C(=O)O)ccc32)C1C (centres unmarked),1
20,CCC12CC3CC(O)(C1)CC(C(=O)O)(C3)C2 (centres unmarked),1
21,CC1CCCC(NC(=O)c2ccc3snnc3c2)C1C (centres unmarked),1
22,CC1CCCC(NS(=O)(=O)c2cccs2)C1C (centres unmarked),1
23,CC12CC3CC(C)(C1)CC(C(=O)NNC(N)=O)(C3)C2,1
24,CC1CCC(O[C@H]2C=CC(=O)O2)C(C(C)C)C1 (some centres unmarked),0
25,CC12CC3CC(C)(C1)CC(c1ccc(O)cc1)(C3)C2,2
26,CC12CC3(C)CC(C)(C1)CC(C(=O)O)(C2)C3,2
27,CC1CCCC(NC(=O)NC2CCCCC2)C1C (centres unmarked),0
28,CC12CC3(C)CC(C)(C1)CC(C(=O)NC(C)(C)CO)(C2)C3,1
29,CC12CC3CC(C)(C1)CC(C(=O)NC1=NCCS1)(C3)C2,1
30,Cl.NC1C2CC3C1C3C2Cl (centres unmarked),1

# Same assay, conditions: pretreatment of column with 1 to 10 μM; FIG. 5
row,SMILES,effect of pretreatment of immobilized Aβ aggregates
1,"O[C@H]1[C@H](O)[C@@H](O)[C@H](O)[C@@H](O)[C@@H]1O [AZD-103, scyllo-inositol, reference compound]",prevents binding and/or breaks down of Aβ fibrils
